Here are results for 41 compounds from patent US6794386B2, “β-amino acid compounds as integrin antagonists” (Bayer Aktiengesellschaft, priority 2000, dated 2004).

The target of this assay is T1, VLA-4 (Homo sapiens, UniProt P05556+P13612).
T1 construct: host or cells: Jurkat clone E6-1
In words: Adhesion of Jurkat cells to immobilized VCAM-1 (domains 1-3). As to conditions: adhesion of CFSE-labeled Jurkat cells to recombinant human VCAM-1 (domains 1-3) coated plates, compounds as yielded by solid phase synthesis, purity about 40-90%. Further details: scale not given here. Format: cell-based. In outline: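 CFSE-labelled Jurkat E6-1 cells in Tris buffer pH 7.4 with 2 mM MnCl2 were added to wells coated with insect-cell-expressed human VCAM-1 domains 1-3 (0.5 μg/ml coating solution); labelled cells were incubated for 30 min at 37 °C with the VLA-4 inhibitor.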

Structures are written as SMILES. Where two headings read alike, the source gives them in different places.

T1 sequence (P13612 34-1032): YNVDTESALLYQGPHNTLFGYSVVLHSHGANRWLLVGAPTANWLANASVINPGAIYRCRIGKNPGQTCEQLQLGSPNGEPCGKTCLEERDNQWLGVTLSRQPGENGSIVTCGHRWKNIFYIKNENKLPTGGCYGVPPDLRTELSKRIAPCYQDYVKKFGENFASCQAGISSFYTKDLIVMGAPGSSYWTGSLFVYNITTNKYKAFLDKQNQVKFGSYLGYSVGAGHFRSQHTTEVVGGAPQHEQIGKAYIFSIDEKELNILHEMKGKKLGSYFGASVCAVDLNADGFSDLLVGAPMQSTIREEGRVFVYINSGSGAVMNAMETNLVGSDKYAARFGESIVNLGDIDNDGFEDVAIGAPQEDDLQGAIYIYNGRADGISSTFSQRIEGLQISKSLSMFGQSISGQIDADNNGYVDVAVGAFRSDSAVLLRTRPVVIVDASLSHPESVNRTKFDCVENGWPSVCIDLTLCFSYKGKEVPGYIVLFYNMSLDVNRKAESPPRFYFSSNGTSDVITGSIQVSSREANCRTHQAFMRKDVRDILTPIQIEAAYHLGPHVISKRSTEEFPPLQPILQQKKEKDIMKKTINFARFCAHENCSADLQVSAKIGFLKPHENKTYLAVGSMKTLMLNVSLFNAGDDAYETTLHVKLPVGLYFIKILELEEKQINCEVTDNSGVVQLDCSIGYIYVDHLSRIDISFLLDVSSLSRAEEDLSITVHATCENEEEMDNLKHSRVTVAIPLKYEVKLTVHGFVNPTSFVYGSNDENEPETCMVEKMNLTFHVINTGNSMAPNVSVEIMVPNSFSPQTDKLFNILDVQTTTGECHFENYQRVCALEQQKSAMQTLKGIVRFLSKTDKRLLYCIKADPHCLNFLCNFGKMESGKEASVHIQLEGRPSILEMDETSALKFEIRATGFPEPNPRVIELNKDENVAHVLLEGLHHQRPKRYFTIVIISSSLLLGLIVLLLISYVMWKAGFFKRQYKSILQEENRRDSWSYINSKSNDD
T1 sequence (P05556 21-798): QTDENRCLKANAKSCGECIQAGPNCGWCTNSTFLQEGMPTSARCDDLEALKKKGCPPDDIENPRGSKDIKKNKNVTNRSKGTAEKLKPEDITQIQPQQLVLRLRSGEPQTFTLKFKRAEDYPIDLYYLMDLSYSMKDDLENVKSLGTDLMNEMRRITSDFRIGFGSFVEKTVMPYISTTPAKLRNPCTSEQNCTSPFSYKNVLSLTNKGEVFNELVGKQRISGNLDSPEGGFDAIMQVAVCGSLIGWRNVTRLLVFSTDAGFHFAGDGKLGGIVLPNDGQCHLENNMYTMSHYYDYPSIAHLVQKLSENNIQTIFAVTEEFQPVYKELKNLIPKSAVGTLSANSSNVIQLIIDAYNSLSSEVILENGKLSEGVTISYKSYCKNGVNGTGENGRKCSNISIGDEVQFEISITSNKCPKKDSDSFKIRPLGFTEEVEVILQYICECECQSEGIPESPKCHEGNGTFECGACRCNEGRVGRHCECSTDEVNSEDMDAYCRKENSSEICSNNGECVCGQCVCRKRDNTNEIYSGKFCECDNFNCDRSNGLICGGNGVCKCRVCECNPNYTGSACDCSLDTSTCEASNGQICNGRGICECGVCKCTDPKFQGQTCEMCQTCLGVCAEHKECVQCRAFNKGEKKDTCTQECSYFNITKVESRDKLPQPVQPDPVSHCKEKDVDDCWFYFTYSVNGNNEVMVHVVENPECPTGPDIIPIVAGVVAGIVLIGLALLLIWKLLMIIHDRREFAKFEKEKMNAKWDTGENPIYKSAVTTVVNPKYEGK

Broadly, the IC50 is the concentration at which inhibition is half-maximal. For `COc1ccccc1-c1ccc(C[C@H](NC(=O)C2CCCN(c3ncnc(N4CCNCC4)c3F)C2)C(=O)O)cc1` (some centres unmarked) [Example 2.54], where the note is “read-out: IC50”, the IC50 was no more than 500 nM. With `CCCNc1ncnc(N2CCCC(C(=O)N[C@@H](Cc3ccc(-c4ccccc4OC)cc3)C(=O)O)C2)c1F` (some centres unmarked) [Example 2.55], the IC50 (read-out: IC50) was no more than 500 nM. On to `COc1ccccc1-c1ccc(C[C@H](NC(=O)C2CCCN(c3ncnc(NC4Cc5ccccc5C4)c3F)C2)C(=O)O)cc1` (some centres unmarked) [Example 2.56], for which the IC50 result was “B-C”. Take `CN1CCN(C(=O)Nc2ccc(C[C@H](NC(=O)C3CCCN(C(=O)Cc4cccs4)C3)C(=O)O)cc2)CC1` (some centres unmarked) [Example 4.2]: the half-inhibitory concentration (IC50) (read-out: IC50) was no more than 500 nM.

In the case of `CN1CCN(C(=O)Nc2ccc(C[C@H](NC(=O)C3CCCN(C(=O)c4ccc(OC(F)(F)F)cc4)C3)C(=O)O)cc2)CC1` (some centres unmarked) [Example 4.3], the IC50 (read-out: IC50) was 500 to 2000 nM. The same measure, in the same setting: then `O=C(N[C@@H](Cc1ccc(NC(=O)N2CCCCC2)cc1)C(=O)O)C1CCCN(C(=O)c2ccc(OC(F)(F)F)cc2)C1` (some centres unmarked) [Example 4.4], with 2000 to 10000 nM. On the same count and under the same terms, the value for `CN1CCN(C(=O)Nc2ccc(C[C@H](NC(=O)C3CCCN(S(C)(=O)=O)C3)C(=O)O)cc2)CC1` (some centres unmarked) [Example 4.5] was 500 to 2000 nM. With `COc1ccc(S(=O)(=O)N2CCCC(C(=O)N[C@@H](Cc3ccc(NC(=O)N4CCN(C)CC4)cc3)C(=O)O)C2)cc1OC` (some centres unmarked) [Example 4.6], the IC50 (read-out: IC50) is no more than 500 nM. On the same count and under the same terms, the value for `O=C(N[C@@H](Cc1ccc(NC(=O)N2CCCCC2)cc1)C(=O)O)C1CCCN(S(=O)(=O)Cc2ccccc2)C1` (some centres unmarked) [Example 4.7] was 500 to 2000 nM; that for `O=C(N[C@@H](Cc1ccc(NC(=O)N2CCN(c3ccccc3)CC2)cc1)C(=O)O)C1CCCN(C(=O)c2ccc(OC(F)(F)F)cc2)C1` (some centres unmarked) [Example 4.8] was 2000 to 10000 nM; that for `O=C(N[C@@H](Cc1ccc(NC(=O)N2CCc3ccccc3C2)cc1)C(=O)O)C1CCCN(C(=O)Cc2cccs2)C1` (some centres unmarked) [Example 4.9] was no more than 500 nM. For the compound `O=C(N[C@@H](Cc1ccc(NC(=O)N2CCN(C(c3ccccc3)c3ccccc3)CC2)cc1)C(=O)O)C1CCCN(C(=O)Cc2cccs2)C1` (some centres unmarked) [Example 4.10], the 50% inhibitory concentration (IC50) (read-out: IC50) was no more than 500 nM. The same measure, in the same setting: the value for `Cc1ccc(S(=O)(=O)N2CCCC(C(=O)N[C@@H](Cc3ccc(NC(=O)N4CCN(C)CC4)cc3)C(=O)O)C2)cc1` (some centres unmarked) [Example 4.11] was no more than 500 nM. On the same count and under the same terms, the value for `COc1ccccc1C(=O)N1CCCC(C(=O)N[C@@H](Cc2ccc(NC(=O)N3CCCCC3)cc2)C(=O)O)C1` (some centres unmarked) [Example 4.12] was no more than 500 nM. Still for that read-out and setting: the value for `O=C(N[C@@H](Cc1ccc(NC(=O)N2CCOCC2)cc1)C(=O)O)C1CCCN(C(=O)c2ccc(OC(F)(F)F)cc2)C1` (some centres unmarked) [Example 4.13] was 500 to 2000 nM; that for `COc1ccccc1C(=O)N1CCCC(C(=O)N[C@@H](Cc2ccc(NC(=O)N3CCN(c4ccccc4)CC3)cc2)C(=O)O)C1` (some centres unmarked) [Example 4.14] was no more than 500 nM; that for `COc1ccccc1C(=O)N1CCCC(C(=O)N[C@@H](Cc2ccc(NC(=O)NCC(c3ccccc3)c3ccccc3)cc2)C(=O)O)C1` (some centres unmarked) [Example 4.15] was 500 to 2000 nM.

Regarding `CN1CCN(C(=O)Nc2ccc(C[C@H](NC(=O)C3CCCN(S(=O)(=O)c4ccc5ccccc5c4)C3)C(=O)O)cc2)CC1` (some centres unmarked) [Example 4.16], the IC50 (read-out: IC50) is no more than 500 nM.

On to `O=C(N[C@@H](Cc1ccc(NC(=O)N2CCOCC2)cc1)C(=O)O)C1CCCN(C(=O)OCc2ccccc2)C1` (some centres unmarked) [Example 4.17], for which the IC50 (read-out: IC50) fell in the range of 500 to 2000 nM.

As for `O=C(N[C@@H](Cc1ccc(NC(=O)N2CCN(c3ccccc3)CC2)cc1)C(=O)O)C1CCCN(C(=O)Cc2cccs2)C1` (some centres unmarked) [Example 4.18], the IC50 (read-out: IC50) was no more than 500 nM. With `COc1ccc(OC(=O)N2CCCC(C(=O)N[C@@H](Cc3ccc(NC(=O)N4CCN(c5ccccc5)CC4)cc3)C(=O)O)C2)cc1` (some centres unmarked) [Example 4.19], the IC50 (read-out: IC50) was in the range of 2000 to 10000 nM. The same measure, in the same setting: then `O=C(N[C@H](Cc1ccc(NC(=O)N2CCc3ccccc3C2)cc1)C(=O)O)C1CCCN(C(=O)c2ccc(OC(F)(F)F)cc2)C1` (some centres unmarked) [Example 4.20], with 2000 to 10000 nM; and `O=C(N[C@@H](Cc1ccc(NC(=O)N2CCOCC2)cc1)C(=O)O)C1CCCN(C(=O)Cc2ccccc2)C1` (some centres unmarked) [Example 4.21], with 500 to 2000 nM; and `COc1ccccc1C(=O)N1CCCC(C(=O)N[C@@H](Cc2ccc(NC(=O)N3CCOCC3)cc2)C(=O)O)C1` (some centres unmarked) [Example 4.22], with no more than 500 nM. On the same count and under the same terms, the value for `COc1ccc(CC(=O)N2CCCC(C(=O)N[C@H](Cc3ccc(NC(=O)N4CCc5ccccc5C4)cc3)C(=O)O)C2)cc1` (some centres unmarked) [Example 4.23] was 500 to 2000 nM; that for `COc1ccccc1C(=O)N1CCCC(C(=O)N[C@@H](Cc2ccc(NC(=O)NC3CCN(Cc4ccccc4)CC3)cc2)C(=O)O)C1` (some centres unmarked) [Example 4.24] was 500 to 2000 nM; that for `O=C(N[C@@H](Cc1ccc(NC(=O)N2CCOCC2)cc1)C(=O)O)C1CCCN(C(=O)Cc2cccs2)C1` (some centres unmarked) [Example 4.25] was no more than 500 nM.

With `O=C(Nc1ccc(C[C@H](NC(=O)C2CCCN(C(=O)Cc3ccccc3)C2)C(=O)O)cc1)NC1CCN(Cc2ccccc2)CC1` (some centres unmarked) [Example 4.26], the 50% inhibitory concentration (IC50) (read-out: IC50) lay within 2000 to 10000 nM. On the same count and under the same terms, then `COc1ccccc1C(=O)N1CCCC(C(=O)N[C@@H](Cc2ccc(NC(=O)N3CCc4ccccc4C3)cc2)C(=O)O)C1` (some centres unmarked) [Example 4.27], with no more than 500 nM; and `CN1CCN(C(=O)Nc2ccc(C[C@H](NC(=O)C3CCCN(S(=O)(=O)Cc4ccccc4)C3)C(=O)O)cc2)CC1` (some centres unmarked) [Example 4.28], with 500 to 2000 nM; and `O=C(N[C@@H](Cc1ccc(NC(=O)N2CCOCC2)cc1)C(=O)O)C1CCCN(S(=O)(=O)c2cc(Cl)cc(Cl)c2)C1` (some centres unmarked) [Example 4.29], with no more than 500 nM. Same read-out and setting: then `O=C(N[C@@H](Cc1ccc(NC(=O)N2CCOCC2)cc1)C(=O)O)C1CCCN(S(=O)(=O)c2ccc3ccccc3c2)C1` (some centres unmarked) [Example 4.30], with no more than 500 nM; and `CS(=O)(=O)N1CCCC(C(=O)N[C@@H](Cc2ccc(NC(=O)N3CCN(C(c4ccccc4)c4ccccc4)CC3)cc2)C(=O)O)C1` (some centres unmarked) [Example 4.31], with 500 to 2000 nM.

In the case of `Cc1ccc(S(=O)(=O)N2CCCC(C(=O)N[C@@H](Cc3ccc(NC(=O)NC4CCN(Cc5ccccc5)CC4)cc3)C(=O)O)C2)cc1` (some centres unmarked) [Example 4.32], under “read-out: IC50”, the concentration for half-maximal inhibition (IC50) lay in the range of 2000 to 10000 nM. Regarding `O=C(N[C@@H](Cc1ccc(NC(=O)N2CCc3ccccc3C2)cc1)C(=O)O)C1CCCN(S(=O)(=O)c2cccs2)C1` (some centres unmarked) [Example 4.33], the half-maximal inhibitory concentration (IC50) (read-out: IC50) was no more than 500 nM. On to `COc1ccc(S(=O)(=O)N2CCCC(C(=O)N[C@@H](Cc3ccc(NC(=O)N4CCOCC4)cc3)C(=O)O)C2)cc1OC` (some centres unmarked) [Example 4.34], for which, under “read-out: IC50”, the IC50 is no more than 500 nM. Still for that read-out and setting: the value for `Cc1ccc(S(=O)(=O)N2CCCC(C(=O)N[C@@H](Cc3ccc(NC(=O)N4CCN(C(c5ccccc5)c5ccccc5)CC4)cc3)C(=O)O)C2)cc1` (some centres unmarked) [Example 4.35] was 500 to 2000 nM.

For the compound `O=C(NCC(c1ccccc1)c1ccccc1)Nc1ccc(C[C@H](NC(=O)C2CCCN(S(=O)(=O)c3cccs3)C2)C(=O)O)cc1` (some centres unmarked) [Example 4.36], for the setting “read-out: IC50”, the IC50 lay within 2000 to 10000 nM. Still for that read-out and setting: then `CS(=O)(=O)N1CCCC(C(=O)N[C@@H](Cc2ccc(NC(=O)N3CCN(c4ccccc4)CC3)cc2)C(=O)O)C1` (some centres unmarked) [Example 4.37], with 500 to 2000 nM; and `COc1ccc(Cl)cc1S(=O)(=O)N1CCCC(C(=O)N[C@@H](Cc2ccc(NC(=O)N3CCN(c4ccccc4)CC3)cc2)C(=O)O)C1` (some centres unmarked) [Example 4.38], with 500 to 2000 nM; and `O=C(N[C@@H](Cc1ccc(NC(=O)N2CCc3ccccc3C2)cc1)C(=O)O)C1CCCN(S(=O)(=O)c2ccc3ccccc3c2)C1` (some centres unmarked) [Example 4.39], with 2000 to 10000 nM.
